This note sets out measurements from US11185531B2, “Arginine methyltransferase inhibitors and uses thereof” (Epizyme, Inc., priority 2013, dated 2021).

One assay has as its target T1, human PRMT1 (Homo sapiens, UniProt Q99873).
T1 construct: GST-tagged PRMT1; made in house; host or cells: High Five insect cells (baculovirus)
The assay is described as follows: PRMT1 Biochemical Assay (3H-SAM Flashplate, peptide substrate). The following applies: 30 min preincubation. The text has this:
Peptide representative of human histone H4 residues 36-50 was synthesized with an N-terminal linker-affinity tag motif and a C-terminal amide cap by 21st Century Biochemicals. The peptide was purified by high-performance liquid chromatography (HPLC) to greater than 95% purity and confirmed by liquid chromatography mass spectrometry (LC-MS). The sequence was Biot-Ahx-[…]-amide (SEQ ID NO.: 1).
Full-length human PRMT1 isoform 1 (NM_001536.5) transcript clone was amplified from an HEK 293 cDNA library, incorporating flanking 5′ sequence encoding a FLAG tag ([…]) (SEQ ID NO:2) fused directly to Met 1 of PRMT1. The amplified gene was subcloned into pFastBacI (Life Technologies) modified to encode an N-terminal GST tag and a TEV cleavage sequence
GST-tagged PRMT1 was eluted with 50 mM Tris, 2 mM glutathione, pH 7.8, dialysed in buffer A and concentrated to 1 mg/mL. The purity of recovered protein was 73%. Reference: Wasilko, D. J. and S. E. Lee: “TIPS: titerless infected-cells preservation and scale-up” Bioprocess J., 5 (2006), pp. 29-32.
General Procedure for PRMT1 Enzyme Assays on Peptide Substrates.
The assays were all performed in a buffer consisting of 20 mM Bicine (pH=7.6), 1 mM TCEP, 0.005% BSG, and 0.002% Tween 20, prepared on the day of use. Compounds in 100% DMSO (1 ul) were spotted into a polypropylene 384-well V-bottom plates (Greiner) using a Platemate Plus outfitted with a 384-channel head (Thermo Scientific). DMSO (1 ul) was added to Columns 11, 12, 23, 24, rows A-H for the maximum signal control and 1 ul of SAH, a known product and inhibitor of PRMT1, was added to columns 11, 12, 23, 24, rows I-P for the minimum signal control. A cocktail (40 ul) containing the PRMT1 enzyme was added by Multidrop Combi (Thermo-Fisher). The compounds were allowed to incubate with PRMT1 for 30 min at room temperature, then a cocktail (10 ul) containing SAM and peptide was added to initiate the reaction (final volume=51 ul). The final concentrations of the components were as follows: PRMT1 was 0.5 nM, ^3H-SAM was 200 nM, non-radiolabeled SAM was 1.5 uM, peptide was 20 nM, SAH in the minimum signal control wells was 1 mM, and the DMSO concentration was 2%. The assays were stopped by the addition of non-radiolabeled SAM (10 ul) to a final concentration of 300 uM, which dilutes the ^3H-SAM to a level where its incorporation into the peptide substrate is no longer detectable. 50 ul of the reaction in the 384-well polypropylene plate was then transferred to a 384-well Flashplate and the biotinylated peptides were allowed to bind to the streptavidin surface for at least 1 hour before being washed once with 0.1% Tween20 in a Biotek ELx405 plate washer. The plates were then read in a PerkinElmer TopCount plate reader to measure the quantity of ^3H-labeled peptide bound to the Flashplate surface, measured as disintegrations per minute (dpm) or alternatively, referred to as counts per minute (cpm).
(§1) Where dpm=disintegrations per minute, cmpd=signal in assay well, and min and max are the respective minimum and maximum signal controls.
(§2) Where top and bottom are the normally allowed to float, but may be fixed at 100 or 0 respectively in a 3-parameter fit. The Hill Coefficient normally allowed to float but may also be fixed at 1 in a 3-parameter fit. Y is the % inhibition and X is the compound concentration.

Another assay has as its target T2, human PRMT6 (Homo sapiens, UniProt Q96LA8).
T2 construct: Flag-PRMT6-His was eluted with 200 ug/ml FLAG peptide in the same buffer; made in house; host or cells: HEK 293F cells (BacMam baculovirus, pFastBacMam)
The assay is described as follows: PRMT6 Biochemical Assay (3H-SAM Flashplate, peptide substrate). The following applies: 30 min preincubation.
Text: Peptide representative of human histone H4 residues 36-50 was synthesized with an N-terminal linker-affinity tag motif and a C-terminal amide cap by 21st Century Biochemicals. The peptide was purified by high-performance liquid chromatography (HPLC) to greater than 95% purity and confirmed by liquid chromatography mass spectrometry (LC-MS). The sequence was Biot-Ahx-[…]-amide and contained a monomethylated lysine at position 44 (SEQ ID NO:5).
Full-length human PRMT6 (NM_018137.2) transcript clone was amplified from an HEK 293 cDNA library, incorporating a flanking 5′ sequence encoding a FLAG tag ([…]) (SEQ ID NO:6) fused directly to Ser 2 of PRMT6 and a 3′ sequence encoding a hexa His sequence (HHHHHH) fused directly to Asp 375. The amplified gene was subcloned into pFastBacMam (Viva Biotech).
Column was washed with 20 mM imidazole in the same buffer and Flag-PRMT6-His was eluted with 150 mM imidazole. Pooled fractions were dialysed against buffer Ni-A and further purified by anti-flag M2 affinity chromatography. Flag-PRMT6-His was eluted with 200 ug/ml FLAG peptide in the same buffer. Pooled fractions were dialysed in 20 mM Tris, 150 mM NaCl, 10% glycerol and 5 mM 3-mercaptoethanol, pH 7.8. The purity of recovered protein was 95%.
General Procedure for PRMT6 Enzyme Assays on Peptide Substrates.
The assays were all performed in a buffer consisting of 20 mM Bicine (pH=7.6), 1 mM TCEP, 0.005% BSG, and 0.002% Tween 20, prepared on the day of use. Compounds in 100% DMSO (1 ul) were spotted into a polypropylene 384-well V-bottom plates (Greiner) using a Platemate Plus outfitted with a 384-channel head (Thermo Scientific). DMSO (1 ul) was added to Columns 11, 12, 23, 24, rows A-H for the maximum signal control and 1 ul of SAH, a known product and inhibitor of PRMT6, was added to columns 11, 12, 23, 24, rows I-P for the minimum signal control. A cocktail (40 ul) containing the PRMT6 enzyme was added by Multidrop Combi (Thermo-Fisher). The compounds were allowed to incubate with PRMT6 for 30 min at room temperature, then a cocktail (10 ul) containing SAM and peptide was added to initiate the reaction (final volume=51 ul). The final concentrations of the components were as follows: PRMT6 was 1 nM, ^3H-SAM was 200 nM, non-radiolabeled SAM was 250 nM, peptide was 75 nM, SAH in the minimum signal control wells was 1 mM, and the DMSO concentration was 2%. The assays were stopped by the addition of non-radiolabeled SAM (10 ul) to a final concentration of 400 uM, which dilutes the ^3H-SAM to a level where its incorporation into the peptide substrate is no longer detectable. 50 ul of the reaction in the 384-well polypropylene plate was then transferred to a 384-well Flashplate and the biotinylated peptides were allowed to bind to the streptavidin surface for at least 1 hour before being washed once with 0.1% Tween20 in a Biotek ELx405 plate washer. The plates were then read in a PerkinElmer TopCount plate reader to measure the quantity of ^3H-labeled peptide bound to the Flashplate surface, measured as disintegrations per minute (dpm) or alternatively, referred to as counts per minute (cpm).
as §1, §2

T1 sequence (Q99873 with tags, fused parts or gaps): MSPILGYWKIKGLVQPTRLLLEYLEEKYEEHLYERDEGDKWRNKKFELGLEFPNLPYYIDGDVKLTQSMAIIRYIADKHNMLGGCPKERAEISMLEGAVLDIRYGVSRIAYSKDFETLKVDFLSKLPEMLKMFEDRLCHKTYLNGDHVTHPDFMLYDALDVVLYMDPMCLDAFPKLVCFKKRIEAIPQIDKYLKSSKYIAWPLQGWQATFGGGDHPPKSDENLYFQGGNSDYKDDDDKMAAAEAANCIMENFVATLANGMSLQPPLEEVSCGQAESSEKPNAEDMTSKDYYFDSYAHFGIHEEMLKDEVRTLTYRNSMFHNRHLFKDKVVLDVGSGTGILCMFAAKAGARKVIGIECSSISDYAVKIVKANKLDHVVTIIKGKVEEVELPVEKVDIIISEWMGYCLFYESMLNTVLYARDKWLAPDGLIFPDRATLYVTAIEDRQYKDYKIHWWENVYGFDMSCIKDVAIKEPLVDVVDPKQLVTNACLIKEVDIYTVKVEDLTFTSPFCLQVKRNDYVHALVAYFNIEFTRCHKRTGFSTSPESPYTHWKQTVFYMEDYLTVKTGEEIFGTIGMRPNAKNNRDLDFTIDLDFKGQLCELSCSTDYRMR
T2 sequence (Q96LA8 with tags, fused parts or gaps): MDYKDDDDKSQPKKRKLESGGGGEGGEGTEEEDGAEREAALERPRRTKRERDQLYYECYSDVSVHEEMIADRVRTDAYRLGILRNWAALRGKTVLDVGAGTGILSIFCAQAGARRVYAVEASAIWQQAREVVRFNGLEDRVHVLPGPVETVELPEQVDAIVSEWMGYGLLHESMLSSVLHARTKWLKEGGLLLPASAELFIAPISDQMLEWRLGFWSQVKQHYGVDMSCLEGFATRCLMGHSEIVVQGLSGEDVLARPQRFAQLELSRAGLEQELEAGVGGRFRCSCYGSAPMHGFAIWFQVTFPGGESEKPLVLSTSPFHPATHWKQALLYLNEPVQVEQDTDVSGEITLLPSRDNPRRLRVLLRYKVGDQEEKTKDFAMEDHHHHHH

Consider `CN(CCN)Cc1c[nH]nc1C1CCC(C)(C)CC1` [Compound 38, N^1-((3-(4,4-dimethylcyclohexyl)-1H-pyrazol-4-yl)methyl)-N^1-methylethane-1,2-diamine], for which the IC50 on human PRMT1 and against human PRMT6 was less than 100 nM in each case.

Regarding `CNCCN(C)Cc1c[nH]nc1C1CCN(C)CC1` [Compound 41], the IC50 on human PRMT1 and on human PRMT6 was less than 100 nM throughout.

As for `CNCCN(C)Cc1c[nH]nc1C1CCNCC1` [Compound 42], the IC50 on human PRMT1 and at human PRMT6 was less than 100 nM throughout.

As to `CN(CCN)Cc1n[nH]cc1C1CCC(N2CCOCC2)CC1` (centres unmarked) [Compound 44, N^1-methyl-N^1-((4-(4-morpholinocyclohexyl)-1H-pyrazol-3-yl)methyl)ethane-1,2-diamine], the IC50 – broadly, the concentration needed to halve the response being measured – is 1010 to 3000 nM against human PRMT1 and 101 to 1000 nM against human PRMT6.
